Assay results from patent publication US12583858B2 (Genentech, Inc., priority 2015, dated 2026).

What follows are compounds tested against T1, TDO2 (Homo sapiens, UniProt P48775) (assay: TDO2 cell assay (NFK GreenScreen, SW48 cells)). Settings: SW48 cells (high TDO expressing), 200 uM tryptophan, 24 hours; Table 3; read-out: TDO2 Cell Fluor EC50.
T1 construct: decreased levels of NFK in SW48 cells (high TDO expressing cells)
Type: cell-based

T1 sequence (P48775 whole entry): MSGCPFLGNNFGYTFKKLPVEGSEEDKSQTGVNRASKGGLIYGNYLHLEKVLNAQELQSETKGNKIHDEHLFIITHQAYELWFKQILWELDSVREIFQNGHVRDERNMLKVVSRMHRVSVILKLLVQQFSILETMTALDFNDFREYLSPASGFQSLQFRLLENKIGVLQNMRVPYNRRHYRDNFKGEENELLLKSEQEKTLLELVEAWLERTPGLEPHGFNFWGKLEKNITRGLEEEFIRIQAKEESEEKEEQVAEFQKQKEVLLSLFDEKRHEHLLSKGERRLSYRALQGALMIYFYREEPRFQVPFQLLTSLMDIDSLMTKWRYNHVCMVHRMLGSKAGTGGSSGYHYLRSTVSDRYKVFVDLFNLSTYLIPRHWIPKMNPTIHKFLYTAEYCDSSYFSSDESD

Row | EC50 [µM] | Structure (SMILES)
1 | > 25 | OC1(C2c3ccccc3-c3cncn32)CCCc2ccncc21 (single isomer, unassigned) [Example 141d]
2 | 0.037 | CS(=O)(=O)c1ccc2c(c1)[C@@H](O)[C@H]([C@H]1c3ccccc3-c3cncn31)CC2 (single isomer, unassigned) [Example 142a]
3 | 5.9 | CS(=O)(=O)c1ccc2c(c1)[C@@H](O)[C@H]([C@H]1c3ccccc3-c3cncn31)CC2 (single isomer, unassigned) [Example 142b]
4 | > 25 | CC(O)(c1ncc[nH]1)C1c2ccccc2-c2cncn21 (single isomer, unassigned) [Example 143a]
5 | > 25 | CC(O)(c1ncc[nH]1)C1c2ccccc2-c2cncn21 (single isomer, unassigned) [Example 143b]
6 | 16 | CC(O)(c1ncc[nH]1)C1c2ccccc2-c2cncn21 (single isomer, unassigned) [Example 143c]
7 | > 25 | CC(O)(c1ncc[nH]1)C1c2ccccc2-c2cncn21 (single isomer, unassigned) [Example 143d]
8 | 1 | OC1(C2c3ccccc3-c3cncn32)CCCOC1 (single isomer, unassigned) [Example 144a]
9 | > 25 | OC1(C2c3ccccc3-c3cncn32)CCCOC1 (single isomer, unassigned) [Example 144b]
10 | 2.1 | OC1(C2c3ccccc3-c3cncn32)CCCOC1 (single isomer, unassigned) [Example 144c]
11 | > 25 | OC1(C2c3ccccc3-c3cncn32)CCCOC1 (single isomer, unassigned) [Example 144d]
12 | 4.2 | N#CC1CCC(O)(C2c3ccccc3-c3cncn32)CC1 (single isomer, unassigned) [Example 145a]
13 | 1.1 | N#CC1CCC(O)(C2c3ccccc3-c3cncn32)CC1 (single isomer, unassigned) [Example 145b]
14 | 19 | N#CC1CCC(O)(C2c3ccccc3-c3cncn32)CC1 (single isomer, unassigned) [Example 145c]
15 | > 25 | N#CC1CCC(O)(C2c3ccccc3-c3cncn32)CC1 (single isomer, unassigned) [Example 145d]
16 | > 25 | OC1c2nncn2CCC1C1c2ccccc2-c2cncn21 (single isomer, unassigned) [Example 146-1a]
17 | 7.4 | OC1c2nncn2CCC1C1c2ccccc2-c2cncn21 (single isomer, unassigned) [Example 146-1b]
18 | > 25 | O[C@@H]1c2nncn2CC[C@H]1[C@H]1c2ccccc2-c2cncn21 (single isomer, unassigned) [Example 146-1c]
19 | 12 | OC1c2nncn2CCC1C1c2ccccc2-c2cncn21 (single isomer, unassigned) [Example 146-1d]
20 | 0.33 | OC1c2cnnn2CCC1C1c2ccccc2-c2cncn21 (single isomer, unassigned) [Example 146a]
21 | > 25 | OC1c2cnnn2CCC1C1c2ccccc2-c2cncn21 (single isomer, unassigned) [Example 146b]
22 | 0.88 | O[C@@H](C1CCCCC1)[C@@H]1c2ccccc2-c2cncn21 (single isomer, unassigned) [Example 148c]
23 | > 25 | O[C@@H](C1CCCCC1)[C@@H]1c2ccccc2-c2cncn21 (single isomer, unassigned) [Example 148d]
24 | 0.19 | NC(=O)c1nc2c(s1)CCC(C1c3ccccc3-c3cncn31)C2O (single isomer, unassigned) [Example 149a]
25 | 0.15 | NC(=O)c1nc2c(s1)CCC(C1c3ccccc3-c3cncn31)C2O (single isomer, unassigned) [Example 149c]
26 | 9.6 | NC(=O)c1nc2c(s1)CCC(C1c3ccccc3-c3cncn31)C2O (single isomer, unassigned) [Example 149d]

Row | EC50 [µM] | Structure (SMILES)
27 | 1.4 | NC(=O)c1nc2c(s1)CCC(C1c3ccccc3-c3cncn31)C2O (single isomer, unassigned) [Example 149e]
28 | > 25 | NC(=O)c1nc2c(s1)CCC(C1c3ccccc3-c3cncn31)C2O (single isomer, unassigned) [Example 149f]
29 | 24.2 | NC(=O)c1nc2c(s1)CCC(C1c3ccccc3-c3cncn31)C2O (single isomer, unassigned) [Example 149g]
30 | 24 | NC(=O)c1nc2c(s1)CCC(C1c3ccccc3-c3cncn31)C2O (single isomer, unassigned) [Example 149h]
31 | 2.1 | OC1CC(CF)(CF)C1C1c2ccccc2-c2cncn21 (single isomer, unassigned) [Example 150b]
32 | 18 | OC1CC(CF)(CF)C1C1c2ccccc2-c2cncn21 (single isomer, unassigned) [Example 150d]
33 | 0.053 | OC1CC(CF)(CF)C1C1c2ccccc2-c2cncn21 (single isomer, unassigned) [Example 150e]
34 | 11 | OC1CC(CF)(CF)C1C1c2ccccc2-c2cncn21 (single isomer, unassigned) [Example 150f]
35 | > 25 | O[C@@H]1c2c(F)cnn2CC[C@@H]1[C@@H]1c2ccccc2-c2cncn21 (single isomer, unassigned) [Example 151b]
36 | > 25 | OC1c2c(F)cnn2CCC1C1c2ccccc2-c2cncn21 (single isomer, unassigned) [Example 151c]
37 | 0.13 | O[C@@H]1c2c(F)cnn2CC[C@H]1[C@H]1c2ccccc2-c2cncn21 (single isomer, unassigned) [Example 151d]
38 | 14 | OC(c1ccncc1)C1c2ccccc2-c2cncn21 (single isomer, unassigned) [Example 152a]
39 | > 25 | OC(c1ccncc1)C1c2ccccc2-c2cncn21 (single isomer, unassigned) [Example 152b]
40 | > 25 | OC(c1ccncc1)C1c2ccccc2-c2cncn21 (single isomer, unassigned) [Example 152c]
41 | > 25 | OC(c1ccncc1)C1c2ccccc2-c2cncn21 (single isomer, unassigned) [Example 152d]
42 | 0.62 | N#CC1(C(O)C2c3ccccc3-c3cncn32)CC1 (single isomer, unassigned) [Example 153a]
43 | 11 | N#CC1(C(O)C2c3ccccc3-c3cncn32)CC1 (single isomer, unassigned) [Example 153b]
44 | 0.13 | OC(C1c2ccccc2-c2cncn21)C1(F)CC1 (single isomer, unassigned) [Example 154a]
45 | > 25 | OC(C1c2ccccc2-c2cncn21)C1(F)CC1 (single isomer, unassigned) [Example 154b]
46 | 5.4 | OC(C1c2ccccc2-c2cncn21)C1(F)CC1 (single isomer, unassigned) [Example 154c]
47 | 13 | OC(C1c2ccccc2-c2cncn21)C1(F)CC1 (single isomer, unassigned) [Example 154d]
48 | > 25 | CC(C)(C(N)=O)C(O)C1c2ccccc2-c2cncn21 (single isomer, unassigned) [Example 155b]
49 | 21 | CC(C)(C(N)=O)C(O)C1c2ccccc2-c2cncn21 (single isomer, unassigned) [Example 155c]
50 | > 25 | CC(C)(C(N)=O)C(O)C1c2ccccc2-c2cncn21 (single isomer, unassigned) [Example 155d]
51 | > 25 | N#Cc1cnn2c1C(O)C(C1c3ccccc3-c3cncn31)CC2 (single isomer, unassigned) [Example 156a]
